pIC50: −log10 of the molar value.
Assays:
[1] = test system: Aβ40 in conditioned medium of cells stably expressing Amyloid Precursor Protein (APP); assay: In vitro BACE cell-based assay (HEK cell assay), Aβ40 sandwich ELISA; settings: Homo sapiens, HEK293; Aβ40, 24 h incubation
How it was run: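 Aβ40 in conditioned medium was quantified by time-resolved fluorescence sandwich ELISA (pAb40 capture 3 h at 4 °C, biotin-6E10 detection 2 h at 4 °C) after 24 h compound exposure of APP-expressing cells. Doses spanned 10 points from 100 μM or 10 μM top, 0.1% DMSO; IC50 was derived from percent of control.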

[2] = target: Beta Secretase enzyme (BACE1) (Homo sapiens, UniProt P56817); assay: In vitro enzymatic BACE FRET assay; format: biochemical; settings: read-out: BACE1 FRET assay IC50
Chain of Beta Secretase enzyme (BACE1) (P56817 46-501): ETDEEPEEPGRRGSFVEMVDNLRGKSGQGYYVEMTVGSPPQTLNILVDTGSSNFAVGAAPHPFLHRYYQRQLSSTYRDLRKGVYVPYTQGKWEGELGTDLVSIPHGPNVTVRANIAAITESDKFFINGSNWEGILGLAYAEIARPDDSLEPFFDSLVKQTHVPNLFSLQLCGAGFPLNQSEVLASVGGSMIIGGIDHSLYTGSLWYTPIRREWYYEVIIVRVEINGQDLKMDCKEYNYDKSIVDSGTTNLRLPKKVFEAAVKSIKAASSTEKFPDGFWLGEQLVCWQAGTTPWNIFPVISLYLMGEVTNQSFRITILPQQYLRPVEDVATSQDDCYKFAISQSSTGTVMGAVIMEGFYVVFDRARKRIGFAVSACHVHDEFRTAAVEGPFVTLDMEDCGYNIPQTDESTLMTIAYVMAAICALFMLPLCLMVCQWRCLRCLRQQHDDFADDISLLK
How it was run: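 Readout: dequenched fluorescence (ex 488 nm/[…]) after neutralizing with Tris buffer. Reactions, begun by adding 50 nM quenched peptide substrate spanning the BACE cleavage site, were incubated one hour at pH 4.2 in 0.05 M acetate with 100 uM genapol and 10% final DMSO.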

Cathepsin D (Cat D) = target: T1, Cathepsin D (Cat D) (Homo sapiens, UniProt P07339); assay: In vitro enzymatic Cathepsin D (Cat D) FRET assay; format: biochemical; settings: read-out: CatD IC50
T1 construct: Recombinant Cat D was expressed in CHO cells; made in house; host or cells: CHO cells
T1 sequence (P07339 65-412, species assumed): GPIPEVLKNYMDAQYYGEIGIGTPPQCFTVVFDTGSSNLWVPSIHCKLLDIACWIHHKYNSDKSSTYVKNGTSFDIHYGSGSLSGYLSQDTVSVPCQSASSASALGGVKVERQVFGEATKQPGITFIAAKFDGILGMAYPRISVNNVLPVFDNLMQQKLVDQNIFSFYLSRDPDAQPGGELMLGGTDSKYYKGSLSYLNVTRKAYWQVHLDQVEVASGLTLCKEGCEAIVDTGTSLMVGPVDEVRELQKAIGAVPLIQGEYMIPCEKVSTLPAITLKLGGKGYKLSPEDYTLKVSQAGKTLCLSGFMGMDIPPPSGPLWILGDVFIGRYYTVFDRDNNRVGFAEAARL
How it was run: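 FRET read-out: a fluorophore/quencher-labelled peptide substrate is cleaved by 9 nM Cat D (recombinant, CHO-expressed) following a one-hour preincubation with inhibitor dilutions in DMSO. Tris buffer added to neutralize pH ends the reaction before fluorescence measurement.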

| Structure (SMILES) | pIC50 [1] | pIC50 [2] | pIC50 (Cathepsin D (Cat D)) |
| --- | --- | --- | --- |
| COc1cc(F)c2c(Nc3ccc(F)c([C@]4(C)CS(=O)(=O)C(C)(C)C(N)=N4)c3)ncnc2c1 [Example 53, N-(3-((3R)-5-amino-3,6,6-trimethyl-1,1-dioxido-3,6-dihydro-2H-1,4-thiazin-3-yl)-4-fluorophenyl)-5-fluoro-7-methoxy-4-quinazolinamine] | 6.40 | 6.13 | 3.49 |
| Cc1nc2c(Nc3ccc(F)c([C@]4(C)CS(=O)(=O)C(C)(C)C(N)=N4)c3)nccc2s1 [Example 54, N-(3-((3R)-5-amino-3,6,6-trimethyl-1,1-dioxido-3,6-dihydro-2H-1,4-thiazin-3-yl)-4-fluorophenyl)-2-methyl[1,3]thiazolo[4,5-c]pyridin-4-amine] | 6.86 | 7.76 | < 3.40 |
| CC1(C)C(N)=N[C@](C)(c2cc(Nc3nccc4nc(C(F)(F)F)cnc34)ccc2F)CS1(=O)=O [Example 55, N-(3-((3R)-5-amino-3,6,6-trimethyl-1,1-dioxido-3,6-dihydro-2H-1,4-thiazin-3-yl)-4-fluorophenyl)-2-(trifluoromethyl)pyrido[3,4-b]pyrazin-5-amine] | 7.46 | 8.28 | < 3.88 |
| COc1cnc2c(Nc3ccc(F)c([C@]4(C)CS(=O)(=O)CC(N)=N4)c3)nccc2c1 [Example 56, N-(3-((3R)-5-amino-3-methyl-1,1-dioxido-3,6-dihydro-2H-1,4-thiazin-3-yl)-4-fluorophenyl)-3-methoxy-1,7-naphthyridin-8-amine] | 7.57 | 7.20 | 4.16 |
| C[C@@]1(c2cc(Nc3nccc4cc(Cl)cnc34)ccc2F)CS(=O)(=O)CC(N)=N1 [Example 57, N-(3-((3R)-5-amino-3-methyl-1,1-dioxido-3,6-dihydro-2H-1,4-thiazin-3-yl)-4-fluorophenyl)-3-chloro-1,7-naphthyridin-8-amine] | 7.72 | 8.37 | 3.87 |
| Cc1nc2c(Nc3ccc(F)c([C@]4(C)CS(=O)(=O)CC(N)=N4)c3)nccc2s1 [Example 58, N-(3-((3R)-5-amino-3-methyl-1,1-dioxido-3,6-dihydro-2H-1,4-thiazin-3-yl)-4-fluorophenyl)-2-methyl[1,3]thiazolo[4,5-c]pyridin-4-amine] | 6.53 | 6.72 | 3.52 |
| COc1cnc2c(Nc3ccc(F)c([C@]4(C)CS(=O)(=O)[C@@](C)(F)C(N)=N4)c3)nccc2n1 [Example 59, N-(3-((3R,6R)-5-amino-6-fluoro-3,6-dimethyl-1,1-dioxido-3,6-dihydro-2H-1,4-thiazin-3-yl)-4-fluorophenyl)-2-methoxypyrido[3,4-b]pyrazin-5-amine] | 6.75 | 8.48 | 3.41 |
| C[C@]1(F)C(N)=N[C@](C)(c2cc(Nc3nccc4cc(C#N)cnc34)ccc2F)CS1(=O)=O [Example 60, 8-((3-((3R,6R)-5-amino-6-fluoro-3,6-dimethyl-1,1-dioxido-3,6-dihydro-2H-1,4-thiazin-3-yl)-4-fluorophenyl)amino)-1,7-naphthyridine-3-carbonitrile] | 7.09 | > 8.70 | 4.00 |
| COc1cnc2c(Nc3ccc(F)c(C4(CF)CS(=O)(=O)C(C)(C)C(N)=N4)c3)nccc2c1 (stereo not drawn) [Example 61, N-(3-(5-amino-3-(fluoromethyl)-6,6-dimethyl-1,1-dioxido-3,6-dihydro-2H-1,4-thiazin-3-yl)-4-fluorophenyl)-3-methoxy-1,7-naphthyridin-8-amine] | 7.50 | 8.19 | < 3.40 |
| COc1cnc2c(Nc3ccc(F)c(C4(C(F)F)CS(=O)(=O)C(C)(C)C(N)=N4)c3)nccc2c1 (stereo not drawn) [Example 62, N-(3-(5-amino-3-(difluoromethyl)-6,6-dimethyl-1,1-dioxido-3,6-dihydro-2H-1,4-thiazin-3-yl)-4-fluorophenyl)-3-methoxy-1,7-naphthyridin-8-amine] | 5.74 | 6.62 | < 3.40 |
| COc1cnc2c(Nc3ccc(F)c([C@@]4(C(F)(F)F)CS(=O)(=O)C(C)(C)C(N)=N4)c3)nccc2c1 [Example 64, N-(3-((3R)-5-amino-6,6-dimethyl-1,1-dioxido-3-(trifluoromethyl)-3,6-dihydro-2H-1,4-thiazin-3-yl)-4-fluorophenyl)-3-methoxy-1,7-naphthyridin-8-amine] | < 5.00 | 5.06 | < 3.40 |
| COc1cnc2c(Nc3ccc(F)c([C@]4(C(F)F)CS(=O)(=O)C(C)(C)C(N)=N4)c3)nccc2c1 [Example 67, (S)-5-Amino-3-(difluoromethyl)-3-(2-fluoro-5-((3-methoxy-1,7-naphthyridin-8-yl)amino)phenyl)-6,6-dimethyl-3,6-dihydro-2H-1,4-thiazine 1,1-dioxide] | 6.01 | 7.17 | < 3.40 |
| CC1(C)C(N)=N[C@](C)(c2cc(Nc3nccc4cc(Cl)cnc34)cc(F)c2F)CS1(=O)=O [Example 69, (R)-5-Amino-3-(5-((3-chloro-1,7-naphthyridin-8-yl)amino)-2,3-difluorophenyl)-3,6,6-trimethyl-3,6-dihydro-2H-1,4-thiazine 1,1-dioxide] | 7.64 | 9.40 | 5.07 |
| CC1(C)C(N)=N[C@](C)(c2cc(Nc3nccc4nc(O)cnc34)cc(F)c2F)CS1(=O)=O [Example 71, (R)-5-Amino-3-(2,3-difluoro-5-((2-hydroxypyrido[3,4-b]pyrazin-5-yl)amino)phenyl)-3,6,6-trimethyl-3,6-dihydro-2H-1,4-thiazine 1,1-dioxide] | 7.32 | 8.43 | 4.34 |
| CC1(C)C(N)=N[C@@](C)(c2cc(Nc3nccc4nc(O)cnc34)cc(F)c2F)CS1(=O)=O [Example 72, (S)-5-Amino-3-(2,3-difluoro-5-((2-hydroxypyrido[3,4-b]pyrazin-5-yl)amino)phenyl)-3,6,6-trimethyl-3,6-dihydro-2H-1,4-thiazine 1,1-dioxide] | 5.27 | 6.30 | 3.76 |
| CC1(C)C(N)=N[C@](C)(c2cc(Nc3csc4cc(C#N)cnc34)ccc2F)CS1(=O)=O [Example 73, (R)-3-((3-(5-Amino-3,6,6-trimethyl-1,1-dioxido-3,6-dihydro-2H-1,4-thiazin-3-yl)-4-fluorophenyl)amino)thieno[3,2-b]pyridine-6-carbonitrile] | 8.80 | 8.70 | 4.56 |
| COc1cnc2c(Nc3ccc(F)c([C@]4(C)CS(=O)(=O)[C@@](C)(F)C(N)=N4)c3)nccc2c1 [Example 74, (3R,6R)-5-Amino-6-fluoro-3-(2-fluorophenyl-5-((3-methoxy-1,7-naphthyridin-8-yl)amino)phenyl)-3,6-dimethyl-3,6-dihydro-2H-1,4-thiazine 1,1-dioxide] | 6.99 | 7.86 | < 3.40 |
| COc1cnc2c(Nc3ccc(F)c([C@]4(C)CS(=O)(=O)C(C)(C)C(N)=N4)c3)cccc2n1 [Example 75, (R)-5-Amino-3-(2-fluoro-5-((2-methoxyquinoxalin-5-yl)amino)phenyl)-3,6,6-trimethyl-3,6-dihydro-2H-1,4-thiazine 1,1-dioxide] | 6.67 | 7.94 | 4.32 |

Reference: US20140107109A1, “AMINO-DIHYDROTHIAZINE AND AMINO-DIOXIDO DIHYDROTHIAZINE COMPOUNDS AS BETA-SECRETASE ANTAGONISTS AND METHODS OF USE” (Amgen Inc., priority 2012, published 2014)
